The text below walks through data of US11331339B2, “Compound composition with function of promoting bone and joint health and application thereof” (Chenland Nutritionals, Inc., priority 2019, dated 2022).

Experiment [1] concerns wistar rats injected with papain. In words: Test II: tenderness thresholds at modeling joints, measured with a tenderness meter. It is filed as in vivo. To be noted: papain model, 28 days, daily dosage 126 mg/kg. How it is done:
Male wistar rats are randomly divided into a control group, a model group and an experimental group. Each group includes 10 rats. The rats are injected with papain for molding. The rats are administered for 28 days at the same time of molding. Before the rats are put to death, the tenderness thresholds at modeling joints are measured with a tenderness meter.

The subject of experiment [2] is IL-1β. In words: Test I: IL-1β content in serum of rats injected with papain, administered 28 days. It is filed as in vivo, wistar rats. Particulars: rat serum, papain model, daily dosage 126 mg/kg. How it is done: Male wistar rats are randomly divided into a control group, a model group and an experimental group. Each group includes 10 rats. The rats are injected with papain for molding. The rats are administered for 28 days at the same time of molding. Before the rats are put to death, blood is taken from the abdominal vein and centrifuged to obtain serum. The IL-1β content is detected. Specific results are shown in Table 1: The blank group includes normal rats for arthritis modeling. The model group includes rats not administered after modeling. The experimental administration group administers the product of the present invention to the rats. The glucosamine sulfate control group administers glucosamine to the rats. The glucosamine+chondroitin sulfate+collagen control group administers glucosamine+chondroitin sulfate+collagen to the rats. IL-1β is an inflammatory factor in the serum. Normal rats contain the lowest levels of inflammatory factors, and the rats with arthritis but not administered contain the highest levels of inflammatory factors. If different products are administered to rats, the degree of arthritis is alleviated to a certain extent and the levels of inflammatory factors in the rats are reduced to be lower than that of the highest model group, but higher than normal rats.

In experiment [3] the test system is wistar rats injected with papain. In words: Test IV: walking pain score from sole marks. It is filed as in vivo. Particulars: score 0-4, papain model, 28 days, daily dosage 126 mg/kg. The procedure: Male wistar rats are randomly divided into a control group, a model group and an experimental group. Each group includes 10 rats. The rats are injected with papain for molding. The rats are administered for 28 days at the same time of molding. Before the rats are put to death, the left and right soles of the rats are evenly imprinted with printing ink of the same color and the rats walk by 0.4 m on a self-made semi-closed rat walking passage. The sole marks are photographed. Three persons independently score the walking pain based on the sole photos according to the following scoring standard for walking pain and measure the walking pain (when the limbs have a pain reaction, the rats move with the minimum contact area of the paws to reduce the pressure on the affected limbs; and when the left and right feet are uneven in stress and the gait is changed, the colors of the soles are different). The sole is divided into four regions: if one region of the left sole is darker than the right sole, the score is 1; if two regions are darker, the score is 2; and the score is added in sequence (0-4 scores). […] The rats administered with the product can alleviate the arthritis to a certain extent, and can walk slightly normally, so as to reflect the degree of arthritis according to the walking scores.

For experiment [4], the system named is IL-6. Description: Test I: IL-6 content in serum of rats, same administration time and same dosage. It is filed as in vivo, wistar rats. To be noted: rat serum, daily dosage 125 mg/kg. How it is done: Male wistar rats are randomly divided into a control group, a model group and an experimental group. Each group includes 10 rats. The rats are injected with papain for molding. The rats are administered for 28 days at the same time of molding. Before the rats are put to death, blood is taken from the abdominal vein and centrifuged to obtain serum. The IL-1β content is detected. Specific results are shown in Table 1: In addition, to verify the technical solution of the present invention and small daily dosage of the single glucosamine, the inventor respectively experiments the male wistar rats in the same administration time and under the same administration dosage, and detects the IL-6 content in the serum.

In the case of `N[C@H]1C(O)O[C@H](CO)[C@@H](O)[C@@H]1O.O=S(=O)(O)O` (some centres unmarked) [Glucosamine sulfate control group 1, Glucosamine sulfate], the Tenderness thresholds in experiment [1] is reported as 5.607 ± 0.2602 newton. For the same compound, the IL-1β content in experiment [2] stood at 9.456 ± 1.657 ng/L. Further, the “Scores of walking pain” value in experiment [3] worked out at 0.5 ± 0.2303. For the same compound, the IL-6 content in experiment [4] (listed as Glucosamine sulfate control group) was 146.19 ± 18.15 ng/L; in experiment [4] (listed as glucosamine sulfate control group), “not obviously lower than the model group”.
